In patent publication US12275731B2, “Azaindole inhibitors of wild-type and mutant forms of LRRK2” (DANA-FARBER CANCER INSTITUTE, INC., priority 2018, dated 2025):

How the values were obtained:
Test in all cases: KinomeScan profiling
Assay type in all cases: binding
PIK3CA(H1047L) = biological target: T1, PIK3CA(H1047L) (Homo sapiens, UniProt P42336, H1047L); conditions: read-out: % control
T1 construct: purchased KinomeScan® (panel service)
Summary of the method: (§1)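 Selectivity was assessed by binding competition at 1 μM against 468 kinases. Values below 35% of control define an interaction.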

CSNK2A1 = CSNK2A1 (Homo sapiens, UniProt P68400); conditions: CSNK2A1, 1 μM; read-out: % control
Summary of the method: as §1

RAF1 = RAF1 (Homo sapiens, UniProt P04049); conditions: RAF1, 1 μM; read-out: % control
Summary of the method: as §1

BTK = BTK (Homo sapiens, UniProt Q06187); conditions: read-out: % control
Summary of the method: as §1

[1] = biological target: EGFR(L747-E749del, A750P) (Homo sapiens, UniProt P00533, A750P/DEL747-749); conditions: read-out: % control
Summary of the method: as §1

NEK10 = biological target: T2, NEK10 (Homo sapiens, UniProt Q6ZWH5); conditions: NEK10, 1 μM; read-out: % control
T2 sequence (Q6ZWH5 1-1172): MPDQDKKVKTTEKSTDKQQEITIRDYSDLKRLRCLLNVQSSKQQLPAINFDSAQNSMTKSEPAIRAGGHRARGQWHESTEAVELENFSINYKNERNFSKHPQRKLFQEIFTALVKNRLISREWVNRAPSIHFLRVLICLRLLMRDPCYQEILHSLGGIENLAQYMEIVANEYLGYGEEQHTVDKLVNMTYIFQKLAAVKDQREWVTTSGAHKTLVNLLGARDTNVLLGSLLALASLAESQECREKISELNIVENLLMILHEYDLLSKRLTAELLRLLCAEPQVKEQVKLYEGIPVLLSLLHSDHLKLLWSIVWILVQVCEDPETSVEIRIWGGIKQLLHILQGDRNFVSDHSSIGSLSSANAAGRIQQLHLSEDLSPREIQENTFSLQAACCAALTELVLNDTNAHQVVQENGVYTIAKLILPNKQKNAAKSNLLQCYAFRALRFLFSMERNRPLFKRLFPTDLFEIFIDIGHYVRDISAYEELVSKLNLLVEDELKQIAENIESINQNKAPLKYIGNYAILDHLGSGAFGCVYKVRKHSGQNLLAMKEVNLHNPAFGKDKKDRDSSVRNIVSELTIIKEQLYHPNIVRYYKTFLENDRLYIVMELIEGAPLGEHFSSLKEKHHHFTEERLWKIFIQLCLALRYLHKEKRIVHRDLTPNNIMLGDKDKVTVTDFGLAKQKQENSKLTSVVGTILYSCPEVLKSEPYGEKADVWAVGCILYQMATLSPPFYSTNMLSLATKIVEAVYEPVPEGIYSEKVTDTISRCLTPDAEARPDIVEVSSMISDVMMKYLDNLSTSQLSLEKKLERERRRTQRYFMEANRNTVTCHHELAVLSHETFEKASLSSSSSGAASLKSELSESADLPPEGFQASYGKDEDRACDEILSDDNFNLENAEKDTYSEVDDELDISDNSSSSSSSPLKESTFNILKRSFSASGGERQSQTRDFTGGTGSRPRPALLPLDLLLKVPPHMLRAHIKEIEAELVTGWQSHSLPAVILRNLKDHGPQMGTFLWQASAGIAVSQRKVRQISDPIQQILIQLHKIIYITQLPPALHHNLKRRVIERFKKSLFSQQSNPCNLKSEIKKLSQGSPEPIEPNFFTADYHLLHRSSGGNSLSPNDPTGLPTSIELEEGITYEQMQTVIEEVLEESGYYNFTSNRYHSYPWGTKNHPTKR
Summary of the method: as §1

CDK4-cyclinD3 = CDK4-cyclinD3 (Homo sapiens, UniProt P11802); conditions: CDK4-cyclinD3, 1 μM; read-out: % control
Summary of the method: as §1

PRKCD = PRKCD (Homo sapiens, UniProt Q05655); conditions: read-out: % control
Summary of the method: as §1

ROCK1 = ROCK1 (Homo sapiens, UniProt Q13464); conditions: ROCK1, 1 μM; read-out: % control
Summary of the method: as §1

CDK11 = CDK11 (Homo sapiens, UniProt Q9BWU1); conditions: CDK11, 1 μM; read-out: % control
Summary of the method: as §1

CDKL3 = CDKL3 (Homo sapiens, UniProt Q8IVW4); conditions: CDKL3, 1 μM; read-out: % control
Summary of the method: as §1

[2] = biological target: T3, RSK1(Kin.Dom.1-N-terminal) (Homo sapiens, UniProt Q15418); conditions: read-out: % control
T3 construct: RSK1(Kin.Dom.1-N-terminal)
Summary of the method: as §1

TSSK3 = biological target: T4, TSSK3 (Homo sapiens, UniProt Q96PN8); conditions: TSSK3, 1 μM; read-out: % control
T4 sequence (Q96PN8 1-268): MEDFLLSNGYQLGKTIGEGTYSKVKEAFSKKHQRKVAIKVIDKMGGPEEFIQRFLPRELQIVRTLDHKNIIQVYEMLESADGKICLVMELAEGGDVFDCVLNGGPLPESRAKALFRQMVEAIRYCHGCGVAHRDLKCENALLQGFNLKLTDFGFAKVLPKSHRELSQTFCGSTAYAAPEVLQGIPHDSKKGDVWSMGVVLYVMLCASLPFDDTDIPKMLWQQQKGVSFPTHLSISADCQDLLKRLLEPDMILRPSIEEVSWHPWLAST
Summary of the method: as §1

PIK3CA(I800L) = biological target: T5, PIK3CA(I800L) (Homo sapiens, UniProt P42336, I800L); conditions: read-out: % control
T5 construct: purchased KinomeScan® (panel service)
Summary of the method: as §1

VPS34 = VPS34 (Homo sapiens, UniProt Q8NEB9); conditions: VPS34, 1 μM; read-out: % control
Summary of the method: as §1

Chain of BTK (Q06187 whole entry): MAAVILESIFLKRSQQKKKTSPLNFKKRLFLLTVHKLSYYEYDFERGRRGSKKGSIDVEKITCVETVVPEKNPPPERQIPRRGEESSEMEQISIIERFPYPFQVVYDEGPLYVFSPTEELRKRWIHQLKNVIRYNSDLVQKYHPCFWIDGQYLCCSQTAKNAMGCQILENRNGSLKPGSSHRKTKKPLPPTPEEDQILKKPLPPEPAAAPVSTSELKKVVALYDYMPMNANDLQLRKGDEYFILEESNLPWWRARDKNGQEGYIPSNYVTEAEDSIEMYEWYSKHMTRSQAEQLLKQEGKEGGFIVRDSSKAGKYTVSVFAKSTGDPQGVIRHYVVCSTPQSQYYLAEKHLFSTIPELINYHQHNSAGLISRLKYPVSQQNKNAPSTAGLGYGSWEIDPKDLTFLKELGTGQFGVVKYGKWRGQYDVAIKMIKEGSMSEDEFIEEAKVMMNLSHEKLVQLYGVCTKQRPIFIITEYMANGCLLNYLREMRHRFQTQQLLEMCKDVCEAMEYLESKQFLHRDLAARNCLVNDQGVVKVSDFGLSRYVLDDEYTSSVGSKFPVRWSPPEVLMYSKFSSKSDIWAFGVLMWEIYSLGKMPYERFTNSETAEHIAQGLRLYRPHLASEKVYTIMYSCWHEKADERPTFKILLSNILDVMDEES
Chain of CDK11 (Q9BWU1 whole entry): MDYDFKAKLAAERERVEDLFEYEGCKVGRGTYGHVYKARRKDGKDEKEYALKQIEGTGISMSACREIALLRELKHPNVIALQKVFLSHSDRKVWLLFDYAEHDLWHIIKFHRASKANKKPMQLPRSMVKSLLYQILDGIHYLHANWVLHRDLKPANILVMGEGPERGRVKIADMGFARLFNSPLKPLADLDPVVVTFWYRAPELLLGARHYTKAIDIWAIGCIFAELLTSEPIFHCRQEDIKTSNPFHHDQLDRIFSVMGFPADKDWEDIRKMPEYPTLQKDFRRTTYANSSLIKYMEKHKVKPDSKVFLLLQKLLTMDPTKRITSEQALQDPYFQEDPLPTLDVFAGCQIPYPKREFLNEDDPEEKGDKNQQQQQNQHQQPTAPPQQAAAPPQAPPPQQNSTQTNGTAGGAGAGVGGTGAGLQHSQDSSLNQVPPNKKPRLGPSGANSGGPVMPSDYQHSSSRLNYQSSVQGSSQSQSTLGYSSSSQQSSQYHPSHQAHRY
Chain of RAF1 (P04049 whole entry): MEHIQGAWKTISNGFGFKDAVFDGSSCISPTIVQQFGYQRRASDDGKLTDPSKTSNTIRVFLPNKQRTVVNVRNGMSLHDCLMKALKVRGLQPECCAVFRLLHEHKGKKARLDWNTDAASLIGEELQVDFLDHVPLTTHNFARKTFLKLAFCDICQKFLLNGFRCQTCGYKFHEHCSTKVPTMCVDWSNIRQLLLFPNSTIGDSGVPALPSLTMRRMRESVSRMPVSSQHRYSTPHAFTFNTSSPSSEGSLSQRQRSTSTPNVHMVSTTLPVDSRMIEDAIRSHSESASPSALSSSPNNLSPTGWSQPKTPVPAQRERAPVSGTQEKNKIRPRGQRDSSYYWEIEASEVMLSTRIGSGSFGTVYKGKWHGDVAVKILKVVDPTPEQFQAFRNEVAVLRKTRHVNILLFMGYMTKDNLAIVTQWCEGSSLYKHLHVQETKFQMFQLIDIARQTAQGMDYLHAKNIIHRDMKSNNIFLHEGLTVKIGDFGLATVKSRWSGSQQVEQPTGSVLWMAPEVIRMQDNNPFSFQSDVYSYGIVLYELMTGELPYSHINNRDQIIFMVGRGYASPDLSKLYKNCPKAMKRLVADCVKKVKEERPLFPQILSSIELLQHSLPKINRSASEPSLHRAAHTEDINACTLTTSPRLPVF
Chain of ROCK1 (Q13464 whole entry): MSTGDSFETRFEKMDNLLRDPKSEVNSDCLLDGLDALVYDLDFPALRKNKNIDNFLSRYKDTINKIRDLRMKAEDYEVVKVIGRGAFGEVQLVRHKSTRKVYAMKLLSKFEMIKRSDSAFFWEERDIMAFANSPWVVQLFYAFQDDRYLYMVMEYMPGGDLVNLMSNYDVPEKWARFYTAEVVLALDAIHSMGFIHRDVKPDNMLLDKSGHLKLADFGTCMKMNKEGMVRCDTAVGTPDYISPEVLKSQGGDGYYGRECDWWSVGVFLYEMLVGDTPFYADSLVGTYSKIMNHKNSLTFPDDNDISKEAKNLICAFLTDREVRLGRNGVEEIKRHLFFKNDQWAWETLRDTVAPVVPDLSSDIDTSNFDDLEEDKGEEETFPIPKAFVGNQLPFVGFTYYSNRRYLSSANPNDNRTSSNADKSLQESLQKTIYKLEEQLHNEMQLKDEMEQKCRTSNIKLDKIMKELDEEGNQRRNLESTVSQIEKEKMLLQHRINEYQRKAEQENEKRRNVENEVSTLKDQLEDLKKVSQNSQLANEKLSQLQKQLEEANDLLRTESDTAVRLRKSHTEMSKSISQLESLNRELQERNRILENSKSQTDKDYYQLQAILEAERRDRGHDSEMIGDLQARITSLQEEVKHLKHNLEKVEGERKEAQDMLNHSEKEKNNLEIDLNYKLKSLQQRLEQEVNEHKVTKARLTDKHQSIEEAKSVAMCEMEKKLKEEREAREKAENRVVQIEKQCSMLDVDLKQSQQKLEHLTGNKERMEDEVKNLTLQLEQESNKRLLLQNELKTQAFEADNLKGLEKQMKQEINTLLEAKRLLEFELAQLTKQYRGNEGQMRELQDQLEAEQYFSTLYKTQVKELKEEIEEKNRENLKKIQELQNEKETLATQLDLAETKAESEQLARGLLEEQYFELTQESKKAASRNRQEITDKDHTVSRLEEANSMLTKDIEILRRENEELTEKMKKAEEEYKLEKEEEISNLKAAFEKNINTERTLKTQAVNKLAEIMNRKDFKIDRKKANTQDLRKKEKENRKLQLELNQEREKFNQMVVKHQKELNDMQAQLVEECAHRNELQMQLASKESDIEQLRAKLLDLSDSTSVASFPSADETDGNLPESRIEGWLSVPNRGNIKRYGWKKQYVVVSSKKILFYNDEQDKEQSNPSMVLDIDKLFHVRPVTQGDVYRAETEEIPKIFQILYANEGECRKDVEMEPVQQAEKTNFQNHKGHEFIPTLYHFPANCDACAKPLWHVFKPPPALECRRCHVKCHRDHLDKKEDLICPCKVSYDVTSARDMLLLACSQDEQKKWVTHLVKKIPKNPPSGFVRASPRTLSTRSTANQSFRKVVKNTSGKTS
T5 sequence (P42336 whole entry I800L): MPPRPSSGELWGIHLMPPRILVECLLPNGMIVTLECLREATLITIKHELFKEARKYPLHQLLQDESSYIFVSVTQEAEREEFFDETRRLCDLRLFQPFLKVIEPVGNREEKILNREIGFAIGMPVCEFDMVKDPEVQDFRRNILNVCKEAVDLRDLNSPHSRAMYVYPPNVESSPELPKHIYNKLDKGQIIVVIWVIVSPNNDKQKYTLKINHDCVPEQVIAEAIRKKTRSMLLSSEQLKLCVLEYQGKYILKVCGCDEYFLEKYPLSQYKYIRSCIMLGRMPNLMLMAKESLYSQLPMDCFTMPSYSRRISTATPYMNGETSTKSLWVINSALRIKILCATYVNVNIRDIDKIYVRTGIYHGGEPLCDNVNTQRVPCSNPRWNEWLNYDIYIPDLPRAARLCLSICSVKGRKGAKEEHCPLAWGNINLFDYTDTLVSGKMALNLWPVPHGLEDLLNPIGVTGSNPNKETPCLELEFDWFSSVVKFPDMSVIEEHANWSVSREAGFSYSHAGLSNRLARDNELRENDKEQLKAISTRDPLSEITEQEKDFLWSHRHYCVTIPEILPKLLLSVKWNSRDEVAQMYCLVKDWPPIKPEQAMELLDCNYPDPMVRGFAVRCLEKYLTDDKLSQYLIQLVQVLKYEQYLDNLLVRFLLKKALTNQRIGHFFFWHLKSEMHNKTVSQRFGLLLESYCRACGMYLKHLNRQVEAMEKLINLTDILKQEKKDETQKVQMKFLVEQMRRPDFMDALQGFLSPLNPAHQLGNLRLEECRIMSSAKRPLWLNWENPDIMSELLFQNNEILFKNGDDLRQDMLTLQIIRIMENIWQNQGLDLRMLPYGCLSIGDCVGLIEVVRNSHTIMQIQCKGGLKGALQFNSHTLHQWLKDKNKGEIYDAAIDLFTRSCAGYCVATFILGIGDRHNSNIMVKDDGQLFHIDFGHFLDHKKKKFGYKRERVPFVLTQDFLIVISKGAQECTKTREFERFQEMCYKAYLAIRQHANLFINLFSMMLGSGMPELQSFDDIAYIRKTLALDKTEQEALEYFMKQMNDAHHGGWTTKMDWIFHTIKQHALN
T3 sequence (Q15418 62-321 limits assumed): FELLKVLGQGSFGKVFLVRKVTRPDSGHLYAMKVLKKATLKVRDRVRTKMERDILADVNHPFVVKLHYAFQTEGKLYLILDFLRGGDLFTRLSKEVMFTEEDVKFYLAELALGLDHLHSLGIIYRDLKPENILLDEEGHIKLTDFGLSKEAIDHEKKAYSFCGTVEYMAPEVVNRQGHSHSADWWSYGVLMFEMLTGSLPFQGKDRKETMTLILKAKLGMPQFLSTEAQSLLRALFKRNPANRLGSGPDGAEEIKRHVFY
Chain of CSNK2A1 (P68400 whole entry): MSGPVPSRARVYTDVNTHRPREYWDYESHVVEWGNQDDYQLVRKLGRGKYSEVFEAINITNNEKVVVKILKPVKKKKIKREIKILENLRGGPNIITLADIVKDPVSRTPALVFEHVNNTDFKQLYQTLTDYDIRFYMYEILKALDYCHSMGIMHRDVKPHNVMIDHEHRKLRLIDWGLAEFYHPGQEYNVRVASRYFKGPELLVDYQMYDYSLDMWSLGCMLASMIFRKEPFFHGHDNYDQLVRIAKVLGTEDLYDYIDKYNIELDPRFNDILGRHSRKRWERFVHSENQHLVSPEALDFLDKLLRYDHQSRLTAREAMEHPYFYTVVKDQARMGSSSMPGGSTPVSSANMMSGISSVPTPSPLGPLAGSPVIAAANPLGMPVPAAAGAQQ
T1 sequence (P42336 whole entry H1047L): as the sequence (P42336 whole entry I800L) above, with L800I, H1047L counted along it

CNc1c(-c2cnn([C@H]3CCN(C(C)=O)C[C@@H]3F)c2)cnc2[nH]cc(Cl)c12 [Compound 77, 1-((3S,4S)-4-(4-(3-chloro-4-(methylamino)-1H-pyrrolo[2,3-b]pyridin-5-yl)-1H-pyrazol-1-yl)-3-fluoropiperidin-1-yl)ethan-1-one]
remaining binding at 1 µM (PIK3CA(H1047L)): 97% | remaining binding at 1 µM (CSNK2A1): 75% | remaining binding at 1 µM (RAF1): 91% | remaining binding at 1 µM (BTK): 68% | remaining binding at 1 µM [1]: 100% | remaining binding at 1 µM (NEK10): 100% | remaining binding at 1 µM (CDK4-cyclinD3): 98% | remaining binding at 1 µM (PRKCD): 100% | remaining binding at 1 µM (ROCK1): 20% | remaining binding at 1 µM (CDK11): 96% | remaining binding at 1 µM (CDKL3): 94% | remaining binding at 1 µM [2]: 93% | remaining binding at 1 µM (TSSK3): 65% | remaining binding at 1 µM (PIK3CA(I800L)): 566% | remaining binding at 1 µM (VPS34): 35%

O=C(c1ccc(-c2cnc3[nH]cc(Cl)c3c2NC2CCCC2)cc1)N1CCC(N2CCOCC2)CC1 [Compound 101, (4-(3-chloro-4-(cyclopentylamino)-1H-pyrrolo[2,3-b]pyridin-5-yl)phenyl)(4-morpholinopiperidin-1-yl)methanone]
remaining binding at 1 µM (PIK3CA(H1047L)): 100% | remaining binding at 1 µM (CSNK2A1): 100% | remaining binding at 1 µM (RAF1): 91% | remaining binding at 1 µM (BTK): 100% | remaining binding at 1 µM [1]: 88% | remaining binding at 1 µM (NEK10): 100% | remaining binding at 1 µM (CDK4-cyclinD3): 99% | remaining binding at 1 µM (PRKCD): 88% | remaining binding at 1 µM (ROCK1): 63% | remaining binding at 1 µM (CDK11): 35% | remaining binding at 1 µM (CDKL3): 100% | remaining binding at 1 µM [2]: 80% | remaining binding at 1 µM (TSSK3): 98% | remaining binding at 1 µM (PIK3CA(I800L)): 80% | remaining binding at 1 µM (VPS34): 100%

CNc1c(-c2ccc(C(=O)N3CCC(N4CCOCC4)CC3)cc2)cnc2[nH]cc(Cl)c12 [Compound 96, (4-(3-chloro-4-(methylamino)-1H-pyrrolo[2,3-b]pyridin-5-yl)phenyl)(4-morpholinopiperidin-1-yl)methanone]
remaining binding at 1 µM (PIK3CA(H1047L)): 92% | remaining binding at 1 µM (CSNK2A1): 72% | remaining binding at 1 µM (RAF1): 100% | remaining binding at 1 µM (BTK): 78% | remaining binding at 1 µM [1]: 100% | remaining binding at 1 µM (NEK10): 100% | remaining binding at 1 µM (CDK4-cyclinD3): 100% | remaining binding at 1 µM (PRKCD): 94% | remaining binding at 1 µM (ROCK1): 4.7% | remaining binding at 1 µM (CDK11): 68% | remaining binding at 1 µM (CDKL3): 100% | remaining binding at 1 µM [2]: 100% | remaining binding at 1 µM (TSSK3): 45% | remaining binding at 1 µM (PIK3CA(I800L)): 64% | remaining binding at 1 µM (VPS34): 51%
